# Measured values as given in patent US20260258172A1, “CATIONIC POLYMERS WITH SELECTIVE ANTIFUNGAL PROPERTIES” (Uniwersytet Jagiellonski, priority 2022, published 2026).
# What was measured:
# Assay type in all cases: cell-based
# [1] = test system: 3T3-L1 murine embryonic fibroblast line; test: Neutral red uptake toxicity test, 3T3-L1 fibroblasts; details: medium with serum, 24 h exposure
# Description: Preliminary tests were conducted in the 3T3-L1 murine embryonic fibroblast line (ATCC, CL-173™), an immortalized line (highly tolerant cells). DMEM was used as the medium. 24 h after seeding and successful adhesion, polymers dissolved in the medium were added to the cells (the medium was first replaced with a serum-free medium in serum-free experiments), and viable cells were quantified after another 24 h using the neutral red uptake assay.
# The toxicity of ciclopirox and terbinafine, two commercially used antifungal drugs, was evaluated in similar conditions (the same cell line, medium composition and exposure time).
# HaCaT cell line = test: Neutral red uptake toxicity test, HaCaT keratinocytes; details: human, 24 h, 5 μg/mL
# Description: The testing was performed in the HaCaT cell line, a nontumorigenic, immortalized human keratinocyte line. The DMEM medium was used in the culture, including a modification with 10% fetal bovine serum added. 24 h after seeding and successful adhesion, the polymer dissolved in the medium was added to the cells (the medium was first replaced with a serum-free medium in serum-free experiments), and viable cells were quantified after another 24 h using the neutral red uptake assay.
# The toxicity of terbinafine and ciclopirox, two commercially used antifungal drugs, was evaluated in similar conditions (the same cell line, medium composition and exposure time). As for ciclopirox, the serum-free medium was not used because the drug strongly interacts with serum and testing in a serum-free medium would have been unreliable. The results are shown in graphs in FIG. 8 and FIG. 9.
# [2] = test system: Aspergillus brasiliensis ATCC 16404; test: Antifungal microdilution MIC test; details: Aspergillus brasiliensis, ATCC16404, comparative test
# Description: (§1) In vitro tests of the antifungal activity of the polymers were performed with respect to selected fungal species obtained from international culture collections and the microorganism collection in the Department of Infection Control and Mycology, Chair of Microbiology, Jagiellonian University Medical College. The test was performed using the microdilution method in a liquid medium on flat-bottomed, 96-well polypropylene titration plates. The applied methodology was based on antifungal susceptibility testing procedures developed by the European Committee on Antimicrobial Susceptibility Testing (EUCAST) and on the Hancock Lab procedure for antimicrobial cationic peptides.
# (§2) The test compounds were dissolved in sterile distilled water and starting concentrations of 5 g/L were prepared, from which a series of two-fold dilutions in water were obtained. Respective polymer dilutions were transferred in a volume of 20 μL on titration plates (wells 1-10). 20 μL of sterile distilled water was transferred to each of wells 11 and 12. Wells 1-11 were inoculated with fungi in a volume of 180 μL of fungal cell suspensions in a liquid medium, and 180 μL of the sterile medium was transferred to well 12. Fungal suspensions were prepared from fresh cultures on agar media by collecting spores using a sterile swab into sterile distilled water or sterile distilled water with Tween-20 added. Suspensions of certain strains were filtered to remove any hyphal elements (filters with a pore diameter of 20 μm and 10 μm were used). The suspensions were brought to a density of 0.5 on the McFarland scale, and subsequently diluted to 1:20 in a liquid RPMI-1640 medium with L-glutamine and without sodium bicarbonate, supplemented with glucose (2%) and buffered morpholinopropanesulfonic acid (MOPS) (0.165 mol/L).
# (§3) Final polymer concentrations on plates after adding fungal suspensions in the liquid medium were 0.49-250 mg/L or 0.98-500 mg/L.
# (§4) Incubation was performed at room temperature, 27° C., 37° C., depending on the fungal species, until fungal growth was obtained in growth control (well 11). After the incubation period, fungal growth was evaluated visually and the lowest polymer concentrations that caused complete fungal growth inhibition (MIC (minimal inhibitory concentration) values) were determined.
# (§5) A test was performed on selected fungal strains to compare MIC values of the PMAPTAC133 polymer with the MIC values of two known antifungal drugs (terbinafine and ciclopirox), used in the treatment of fungal infections of glabrous skin, hairy skin and nails.
# (§6) The procedure described in the section above (Example 8) was used in the testing.
# (§7) The drugs were dissolved in dimethyl sulfoxide (DMSO) and starting concentrations of 4 g/L were prepared, from which series of two-fold dilutions in DMSO were obtained. Respective […] concentrations were diluted to 1:100 in sterile water and subsequently transferred to wells 1-10 on a titration plate in a volume of 20 μL. Wells 11 and 12 were filled up with 20 μL DMSO diluted to 1:10 in water. Wells 1-11 were inoculated with fungi in a volume of 180 μL of fungal cell suspensions in a liquid medium, and […] of the sterile medium was transferred to well 12. Final drug concentrations on plates after adding fungal suspensions in the liquid medium were 0.008-4 mg/L.
# [3] = test system: Aspergillus flavus ATCC 204304; test: Antifungal microdilution MIC test; details: Aspergillus flavus, ATCC204304, comparative test
# Description: as §1, §2, §3, §4, §5, §6, §7
# [4] = test system: Aspergillus fumigatus DSM 819; test: Antifungal microdilution MIC test; details: Aspergillus fumigatus, DSM819, comparative test
# Description: as §1, §2, §3, §4, §5, §6, §7
# [5] = test system: Aspergillus fumigatus SU 56; test: Antifungal microdilution MIC test; details: Aspergillus fumigatus, SU56, comparative test
# Description: as §1, §2, §3, §4, §5, §6, §7
# [6] = test system: Aspergillus terreus DSM 1958; test: Antifungal microdilution MIC test; details: Aspergillus terreus, DSM1958, comparative test
# Description: as §1, §2, §3, §4, §5, §6, §7
# [7] = test system: Candida albicans ATCC 90028; test: Antifungal microdilution MIC test; details: ATCC90028, comparative test
# Description: as §1, §2, §3, §4, §5, §6, §7
# Cryptococcus neoformans = test: Antifungal microdilution MIC test; details: comparative test; for MIC: Cryptococcus neoformans
# Description: as §1, §2, §3, §4, §5, §6, §7
# [8] = test system: Fusarium solani strain 155; test: Antifungal microdilution MIC test; details: comparative test
# Description: as §1, §2, §3, §4, §5, §6, §7
# [9] = test system: Scopulariopsis brevicaulis 34; test: Antifungal microdilution MIC test; details: comparative test
# Description: as §1, §2, §3, §4, §5, §6, §7
# [10] = test system: Scopulariopsis brevicaulis DSM 9122; test: Antifungal microdilution MIC test; details: DSM9122, comparative test
# Description: as §1, §2, §3, §4, §5, §6, §7
# [11] = test system: Trichophyton interdigitale 251; test: Antifungal microdilution MIC test; details: comparative test
# Description: as §1, §2, §3, §4, §5, §6, §7
# [12] = test system: Trichophyton interdigitale D182; test: Antifungal microdilution MIC test; details: comparative test
# Description: as §1, §2, §3, §4, §5, §6, §7
# [13] = test system: Trichophyton interdigitale DSM4167; test: Antifungal microdilution MIC test; details: comparative test
# Description: as §1, §2, §3, §4, §5, §6, §7
# [14] = test system: Trichophyton mentagrophytes ATCC 18484; test: Antifungal microdilution MIC test; details: Trichophyton mentagrophytes, ATCC18484, comparative test
# Description: as §1, §2, §3, §4, §5, §6, §7
# Trichophyton rubrum D197 = test: Antifungal microdilution MIC test; details: comparative test
# Description: as §1, §2, §3, §4, §5, §6, §7
# Trichophyton rubrum D320 = test: Antifungal microdilution MIC test; details: comparative test
# Description: as §1, §2, §3, §4, §5, §6, §7
# [15] = test system: Trichophyton rubrum DSM 16111; test: Antifungal microdilution MIC test; details: DSM16111, comparative test
# Description: as §1, §2, §3, §4, §5, §6, §7
# [16] = test system: Trichophyton tonsurans 264; test: Antifungal microdilution MIC test; details: comparative test
# Description: as §1, §2, §3, §4, §5, §6, §7
# [17] = test system: Trichophyton tonsurans DSM 12285; test: Antifungal microdilution MIC test; details: DSM12285, comparative test
# Description: as §1, §2, §3, §4, §5, §6, §7
# [18] = test system: Candida glabrata ATCC 15545; test: Antifungal microdilution MIC test; details: Nakaseomyces glabratus, ATCC15545, comparative test
# Description: as §1, §2, §3
# as §4, with “determined. […]” for “determined.”
# Candida krusei ATCC 6258 = test: Antifungal microdilution MIC test; details: Pichia kudriavzevii, ATCC6258, comparative test
# Description: as §1, §2, §3
# as §4, with “determined. […]” for “determined.”
# Fusarium oxysporum 109 = test: Antifungal microdilution MIC test; details: comparative test
# Description: as §1, §2, §3
# as §4, with “determined. […]” for “determined.”
# [19] = test system: Fusarium oxysporum DSM 841; test: Antifungal microdilution MIC test; details: DSM841, comparative test
# Description: as §1, §2, §3
# as §4, with “determined. […]” for “determined.”
# Fusarium solani DSM 1164 = test: Antifungal microdilution MIC test; details: DSM1164, comparative test
# Description: as §1, §2, §3
# as §4, with “determined. […]” for “determined.”
smiles,measurement,setting,value
"Cc1cc(C2CCCCC2)n(O)c(=O)c1 [Ciclopirox, ciclopirox]",concentration at which the number of viable cells decreased to less than 50%,[1],≥ 5000 ng/mL
same,reduction of viable keratinocyte cells compared to the control,HaCaT cell line,30%
same,MIC,[2]; incubation time 24 h,> 4 µg/mL
same,MIC,[2]; incubation time 48 h,> 4 µg/mL
same,MIC,[3]; incubation time 24 h,> 4 µg/mL
same,MIC,[3]; incubation time 48 h,> 4 µg/mL
same,MIC,[4]; incubation time 24 h,> 4 µg/mL
same,MIC,[4]; incubation time 48 h,> 4 µg/mL
same,MIC,[5]; incubation time 24 h,> 4 µg/mL
same,MIC,[5]; incubation time 48 h,> 4 µg/mL
same,MIC,[6]; incubation time 24 h,> 4 µg/mL
same,MIC,[6]; incubation time 48 h,> 4 µg/mL
same,MIC,[7]; incubation time 24 h,> 4 µg/mL
same,MIC,[7]; incubation time 48 h,> 4 µg/mL
same,MIC,Cryptococcus neoformans; incubation time 24 h,> 4 µg/mL
same,MIC,Cryptococcus neoformans; incubation time 48 h,> 4 µg/mL
same,concentration with slight growth suppression,Cryptococcus neoformans; incubation time 24 h,>4 slight mg/L
same,MIC,[8]; incubation time 24 h,> 4 µg/mL
same,MIC,[8]; incubation time 48 h,> 4 µg/mL
same,MIC,[9]; incubation time 24 h,> 4 µg/mL
same,MIC,[9]; incubation time 48 h,> 4 µg/mL
same,MIC,[10]; incubation time 24 h,> 4 µg/mL
same,MIC,[10]; incubation time 48 h,> 4 µg/mL
same,MIC,[11]; incubation time 24 h,> 4 µg/mL
same,MIC,[11]; incubation time 48 h,> 4 µg/mL
same,MIC,[11]; incubation time 72 h,> 4 µg/mL
same,MIC,[12]; incubation time 24 h,> 4 µg/mL
same,MIC,[12]; incubation time 48 h,> 4 µg/mL
same,MIC,[12]; incubation time 72 h,> 4 µg/mL
same,MIC,[13]; incubation time 24 h,> 4 µg/mL
same,MIC,[13]; incubation time 48 h,> 4 µg/mL
same,MIC,[13]; incubation time 72 h,> 4 µg/mL
same,MIC,[14]; incubation time 24 h,> 4 µg/mL
same,MIC,[14]; incubation time 48 h,> 4 µg/mL
same,MIC,[14]; incubation time 72 h,> 4 µg/mL
same,MIC,Trichophyton rubrum D197; incubation time 48 h,> 4 µg/mL
same,MIC,Trichophyton rubrum D197; incubation time 72 h,> 4 µg/mL
same,MIC,Trichophyton rubrum D320; incubation time 24 h,> 4 µg/mL
same,MIC,Trichophyton rubrum D320; incubation time 48 h,> 4 µg/mL
same,MIC,Trichophyton rubrum D320; incubation time 72 h,> 4 µg/mL
same,MIC,[15]; incubation time 24 h,> 4 µg/mL
same,MIC,[15]; incubation time 48 h,> 4 µg/mL
same,MIC,[15]; incubation time 72 h,> 4 µg/mL
same,MIC,[16]; incubation time 48 h,> 4 µg/mL
same,MIC,[16]; incubation time 72 h,> 4 µg/mL
same,MIC,[17]; incubation time 48 h,> 4 µg/mL
same,MIC,[17]; incubation time 72 h,> 4 µg/mL
same,MIC,[18]; incubation time 24 h,> 4 µg/mL
same,MIC,[18]; incubation time 48 h,> 4 µg/mL
same,MIC,Candida krusei ATCC 6258; incubation time 24 h,> 4 µg/mL
same,MIC,Candida krusei ATCC 6258; incubation time 48 h,> 4 µg/mL
same,MIC,Fusarium oxysporum 109; incubation time 24 h,> 4 µg/mL
same,MIC,Fusarium oxysporum 109; incubation time 48 h,> 4 µg/mL
same,MIC,[19]; incubation time 24 h,> 4 µg/mL
same,MIC,[19]; incubation time 48 h,> 4 µg/mL
same,MIC,Fusarium solani DSM 1164; incubation time 24 h,> 4 µg/mL
same,MIC,Fusarium solani DSM 1164; incubation time 48 h,> 4 µg/mL
